Test results: ChEMBL document CHEMBL4000228, “Synthesis of bioactive and fluorescent pyridine-triazole-coumarin peptidomimetics through sequential click-multicomponent reactions” (Bioorg Med Chem Lett, 2017)
Activity calls are given as the source filed them. The rule behind the calls is not given here.

Legend:
MCF7 [1] = experiment: Induction of morphological changes in human MCF7 cells at 40 uM after 48 hrs by DAPI staining based fluorescence microscopic method; assay type: functional, cell-based
MCF7 [2] = experiment: Induction of morphological changes in human MCF7 cells at 40 uM after 48 hrs by DAPI staining based inverted light microscopic method; assay type: functional, cell-based

SMILES: COc1ccc(C(CC(=O)c2cc3ccccc3oc2=O)NC(=O)CCn2cc(COc3ccc(-c4c(C#N)c(N)nc(Sc5ccccc5)c4C#N)cc3OC)nn2)cc1 (configuration not stated)
- Activity (MCF7 [1]): Active
- Activity (MCF7 [2]): Active
